Measured values from ChEMBL document CHEMBL5291721, “A preclinical secondary pharmacology resource illuminates target-adverse drug reaction associations of marketed drugs” (Nat Commun, 2023).
Blank lines part the entries; values can stand above or below the compound they belong to.

Experiments:
Substance-K receptor = molecular target: T1, Substance-K receptor (Homo sapiens, UniProt P21452)
T1 sequence (P21452 whole entry): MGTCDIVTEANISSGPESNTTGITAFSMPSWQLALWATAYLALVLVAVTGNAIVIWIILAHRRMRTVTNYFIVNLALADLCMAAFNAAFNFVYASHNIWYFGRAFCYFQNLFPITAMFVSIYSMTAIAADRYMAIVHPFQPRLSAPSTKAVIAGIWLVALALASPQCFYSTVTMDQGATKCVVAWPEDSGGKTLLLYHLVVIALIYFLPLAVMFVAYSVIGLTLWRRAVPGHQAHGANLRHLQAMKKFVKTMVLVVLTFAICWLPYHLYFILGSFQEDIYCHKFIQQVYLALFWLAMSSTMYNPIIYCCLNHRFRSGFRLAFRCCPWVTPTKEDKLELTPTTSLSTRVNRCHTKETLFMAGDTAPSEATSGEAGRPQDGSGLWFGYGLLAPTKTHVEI

Androgen receptor = molecular target: T2, Androgen receptor (Rattus norvegicus, UniProt P15207); assay type: functional
T2 sequence (P15207 whole entry): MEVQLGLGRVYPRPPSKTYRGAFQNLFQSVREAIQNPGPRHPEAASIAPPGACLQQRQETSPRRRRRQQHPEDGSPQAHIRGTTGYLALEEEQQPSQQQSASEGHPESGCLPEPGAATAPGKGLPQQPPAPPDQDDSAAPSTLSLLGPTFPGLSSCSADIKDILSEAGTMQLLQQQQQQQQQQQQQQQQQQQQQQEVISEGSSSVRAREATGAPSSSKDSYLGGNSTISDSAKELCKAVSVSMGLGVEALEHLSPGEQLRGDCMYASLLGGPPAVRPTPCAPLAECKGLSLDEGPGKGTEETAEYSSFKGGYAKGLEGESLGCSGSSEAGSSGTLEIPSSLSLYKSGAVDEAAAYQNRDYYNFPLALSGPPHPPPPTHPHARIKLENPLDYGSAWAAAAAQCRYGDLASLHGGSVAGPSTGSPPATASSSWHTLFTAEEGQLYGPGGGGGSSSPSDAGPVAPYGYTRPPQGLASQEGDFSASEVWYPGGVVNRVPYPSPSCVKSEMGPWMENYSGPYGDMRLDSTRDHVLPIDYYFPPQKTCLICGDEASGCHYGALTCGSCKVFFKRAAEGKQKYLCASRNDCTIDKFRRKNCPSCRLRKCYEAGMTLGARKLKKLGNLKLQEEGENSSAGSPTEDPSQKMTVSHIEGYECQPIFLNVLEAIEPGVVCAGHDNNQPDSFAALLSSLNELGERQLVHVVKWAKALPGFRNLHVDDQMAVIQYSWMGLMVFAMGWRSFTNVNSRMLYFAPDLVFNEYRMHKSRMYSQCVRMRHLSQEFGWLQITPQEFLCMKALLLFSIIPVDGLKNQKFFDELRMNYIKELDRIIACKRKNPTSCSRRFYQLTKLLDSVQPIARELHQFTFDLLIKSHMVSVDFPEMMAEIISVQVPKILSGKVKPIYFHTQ

[1] = molecular target: T3, Oxysterols receptor LXR-beta (Homo sapiens, UniProt P55055); assay type: functional
T3 sequence (P55055 whole entry): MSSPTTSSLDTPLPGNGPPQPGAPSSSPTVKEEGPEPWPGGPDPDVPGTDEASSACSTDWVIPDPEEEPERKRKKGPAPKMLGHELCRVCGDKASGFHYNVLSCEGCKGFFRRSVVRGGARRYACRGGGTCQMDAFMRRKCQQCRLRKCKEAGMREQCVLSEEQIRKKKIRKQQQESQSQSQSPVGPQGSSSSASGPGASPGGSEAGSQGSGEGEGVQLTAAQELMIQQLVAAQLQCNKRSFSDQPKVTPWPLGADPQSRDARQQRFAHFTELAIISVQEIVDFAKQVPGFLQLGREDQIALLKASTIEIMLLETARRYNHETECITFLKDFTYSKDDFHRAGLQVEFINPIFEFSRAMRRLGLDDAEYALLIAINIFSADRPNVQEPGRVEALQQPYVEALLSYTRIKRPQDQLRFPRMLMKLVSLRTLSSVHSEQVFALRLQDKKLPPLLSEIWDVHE

Bile acid receptor = molecular target: T4, Bile acid receptor (Homo sapiens, UniProt Q96RI1); assay type: functional
T4 sequence (Q96RI1 whole entry): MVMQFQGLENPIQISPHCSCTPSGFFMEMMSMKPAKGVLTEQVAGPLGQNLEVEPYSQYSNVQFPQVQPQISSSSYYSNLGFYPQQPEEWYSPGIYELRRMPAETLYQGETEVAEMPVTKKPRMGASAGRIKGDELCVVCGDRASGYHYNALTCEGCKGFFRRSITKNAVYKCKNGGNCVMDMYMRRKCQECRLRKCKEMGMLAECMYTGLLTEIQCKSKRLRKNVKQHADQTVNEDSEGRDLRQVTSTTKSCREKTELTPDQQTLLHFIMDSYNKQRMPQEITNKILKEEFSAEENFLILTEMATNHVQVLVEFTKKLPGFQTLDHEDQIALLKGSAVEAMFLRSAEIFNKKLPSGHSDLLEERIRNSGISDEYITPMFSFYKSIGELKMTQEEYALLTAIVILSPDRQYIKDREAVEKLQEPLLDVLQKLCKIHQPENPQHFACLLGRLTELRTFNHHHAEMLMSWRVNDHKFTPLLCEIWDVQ
Further: assay procedure not described here.

Compound: CCOC(=O)[C@H](CCc1ccccc1)N[C@@H](C)C(=O)N1Cc2ccccc2C[C@H]1C(=O)O
AC50 (Substance-K receptor): > 10 µM

AC50 (Androgen receptor): > 30 µM
Compound: CCN(CC)CCn1c(=O)c(Cc2ccc(OC)cc2)nc2ccccc21 [CAROVERINE]

AC50 [1]: > 30 µM | AC50 (Bile acid receptor): > 30 µM
Compound: CC(C)/N=c1\cc2n(-c3ccc(Cl)cc3)c3ccccc3nc-2cc1Nc1ccc(Cl)cc1 [CLOFAZIMINE]
